This note sets out measurements from patent US6387900B1, “3(5)-ureido-pyrazole derivatives process for their preparation and their use as antitumor agents” (Pharmacia & Upjohn S.p.A., priority 1999, dated 2002).

For the compound `O=C(NCc1ccc(Cl)cc1Cl)Nc1cc(C2CC2)n[nH]1` [Example 2, N-(3-cyclopropyl-1H-pyrazol-5-yl)-N′-(2,4-dichlorobenzyl)urea], the melting point was in the range of 177 to 179 °C.

As for `O=C(Nc1ccccc1)Nc1cc(C2CC2)n[nH]1` [Example 1, N-(3-cyclopropyl-1H-pyrazol-5-yl)-N′-phenylurea], the melting point was in the range of 162 to 164 °C.
